Measurements published in patent publication US20210106574A1, “Methods of Treating Cancer” (Tesaro, Inc., priority 2017, published 2021).
Where a name gives a salt, the structure may show the parent alone. Read-outs that look alike come from different tables or passages of the source.

Assays:
[1] = system: HRR mutant PDX models
Procedure: The relative contribution of the loss of BRCA and non-BRCA HRR genes to PARP synthetic lethality in additional indications other than ovarian and breast was also evaluated. To this end, CRISPR/Cas9 technology was utilized to knock-out either the single or both alleles of 11 clinically-relevant HR genes in two different genetic backgrounds.

[2] = system: HRR11 KO isogenic Dld-1 cell lines; details: bi-allelic mutations in BRCA1, BRCA2, PALB2 and ATM (FIG. 5)
Procedure: CRISPR/Cas9 technology was used to knock-out either the single or both alleles of 11 clinically-relevant HR genes in two different genetic backgrounds, using Dld-1 and HeLa cell lines. […] Compounds were added 24 h after cell seeding, and then every 3- to 4-days (2-times a week) during the incubation period (for 13-days incubation period).

[3] = system: platinum-sensitive recurrent ovarian cancer patients
Procedure: Two cohorts were treated: the germline BRCA mutant positive cohort (gBRCAmut) and the non-germline BRCA cohort (non-gBRCAmut). […] Patients in this cohort were germline BRCA mutation carriers as assessed by the FDA-approved Integrated BRACAnalysis test. Patients in the non-gBRCAmut were negative in the FDA-approved Integrated BRACAnalysis test.
This objective is independently evaluated in a cohort of patients with germline BRCA mutation (gBRCAmut) and in a cohort of patients who have high grade serous or high grade predominantly serous histology but without such gBRCA mutations (non-gBRCAmut). […] Accordingly, HRD is used as a tumor biomarker classifier to be evaluated.
Study treatment was dispensed to patients on Day 1 and every cycle (28 days) thereafter until the patient discontinued study treatment. Study treatment was administered orally once daily continuously. Three capsules of 100 mg strength were taken at each dose administration. Clinic visits occurred in each cycle (every 4 weeks 3 days). Response evaluation criteria in solid tumors (RECIST) tumor assessment via computed tomography (CT) or magnetic resonance imaging (MRI) scan of abdomen/pelvis and clinically indicated areas was required at the end of every 2-cycles (8-weeks with a window of 7 days from date of visit) through Cycle 14, then at the end of every 3-cycles (12-weeks with a window of 7 days from date of visit) until progression.
Patients were assessed by the prolongation of progression-free survival (PFS). […] Response Evaluation Criteria in Solid Tumors (RECIST) was used for tumor assessment via a computed tomography (CT) or magnetic resonance imaging (MRI) scan of abdomen/pelvis and clinically indicated areas, which was required at the end of every 2-cycles (8-weeks) through cycle 14 (56-weeks), and then at the end of every 3-cycles (12-weeks) until progression.
Following completion of the NOVA study, formalin-fixed, paraffin-embedded (FFPE) archival tumor samples from NOVA patients were retrospectively analyzed using a pre-specified gene panel. […]

[4] = system: NSCLC PDX models
[5] = system: PARP activity; details: stimulated by hydrogen peroxide, various cell lines, cited from earlier work
[6] = system: cancer cell lines silenced for or carrying mutations of BRCA-1 or BRCA-2; Ewing's sarcoma, ALL, NSCLC, SCLC and ATM-inactivated tumor cell lines; details: cell lines silenced for BRCA-1 or BRCA-2 or carrying BRCA-1 or BRCA-2 mutations compared to wild type counterparts; cited from earlier work
[7] = system: MDA-MB-436, CAPAN-1, GRANTA-519, OVCAR3, HT29 and DLD-1, patient derived Ewing's sarcoma, and TNBC xenograft models; details: xenograft models in mice; cited from earlier work
[8] = system: ovarian cancer patients; details: cited from earlier work
[9] = system: patients with advanced BRCA-mutant ovarian cancer; details: cited from earlier work
[10] = ATM bi-allelic mutant NSCLC PDX models
[11] = 106 patients, 600 mg orally twice daily

## Cc1ccc(S(=O)(=O)O)cc1.NC(=O)c1cccc2cn(-c3ccc([C@@H]4CCCNC4)cc3)nc12 [Niraparib, (3S)-3-[4-{7-(aminocarbonyl)-2H-indazol-2-yl}phenyl]piperidine]
[1]; [10]
  PDX models with strong sensitivity, TGI>70%: 33%
[1]; ATM bi-allelic mutant PDX models
  PDX models with moderate sensitivity, TGI≥50%: 14%
[1]; ATM monoallelic mutant PDX models
  PDX models with TGI≥50%: 0/6
[1]; BAP bi-allelic mutations, across 5-tumor types
  models sensitive with ≥50% TGI: 36%
[1]; BRCA1/2 bi-allelic mutant PDX models
  PDX models with moderate sensitivity, ≥50% TGI: 43%
[1]; BRCA2 bi-allelic mutant PDX models
  PDX models with moderate sensitivity, TGI≥50%: 43%
[1]; OvCa PDX models
  PDX models with >100% TGI: 80%
[1]; PALB2 monoallelic mutant PDX models (1/6)
  PDX models with strong sensitivity: 17%
[1]; bi-allelic mutations in BRCA1, BRCA2, PALB2 and ATM (FIG. 4)
  niraparib sensitivity based on total growth inhibition (TGI): strongest niraparib sensitivity
[1]; sensitive PALB2 monoallelic mutant PDX model
  TGI: 93%
[2]
  niraparib sensitivity based on total growth inhibition (TGI): strongest niraparib sensitivity
[3]; Non-tBRCA1/2 HRR mutant
  Median Progression Free Survival (PFS): 15.7
[3]; tBRCA1/2 mutant
  Median Progression Free Survival (PFS): 15.4
[3]; tBRCA wildtype patients with at least one mutation in 31 DDR gene panel compared to no mutation
  effectiveness of niraparib treatment: similarly effective
[4]; [10]
  models sensitive to niraparib: 2 out of 8
[4]; HRR WT NSCLC PDX models (3 out of 40)
  models sensitive to niraparib: 7.5%
[5]; read-out: IC50, PARP activity in cells
  IC50: ~4 nM
[5]; read-out: inhibitory concentration at 90% of control (IC90), PARP activity in cells
  IC90: ~50 nM
[6]
  anti-proliferative activity: selective anti-proliferative activity
[7]
  antitumor activity: strong antitumor activity

## O=C(c1cc(Cc2n[nH]c(=O)c3ccccc23)ccc1F)N1CCN(C(=O)C2CC2)CC1 [olaparib, 4-[(3-{[4-(cyclopropylcarbonyl)piperazin-1-yl]carbonyl}-4-fluorophenyl)methyl]phthalazin-1(2H)-one]
[8]; in 17 patients with BRCA1 or BRCA2 mutations
  responses: 7 responses
[8]; in the 46 who did not have these mutations
  responses: 11 responses

## CNCc1ccc(-c2[nH]c3cc(F)cc4c3c2CCNC4=O)cc1 [rucaparib, 8-fluoro-2-{4-[(methylamino)methyl]phenyl}-1,3,4,5-tetrahydro-6H-azepino[5,4,3-cd]indol-6-one ((1S,4R)-7,7-dimethyl-2-oxobicyclo[2.2.1]hept-1-yl)methanesulfonic acid salt]
[9]; [11]
  Response assessment by independent radiology review: 42%
  median DOR: 6.7 months
[9]; platinum-refractory patients
  Investigator-assessed ORR: 0%
[9]; platinum-resistant patients
  Investigator-assessed ORR: 25%
[9]; platinum-sensitive patients
  Investigator-assessed ORR: 66%
